Test results as given in ChEMBL document CHEMBL6182930, “Discovery of TBK1Molecular Glue Degraders as a Potential Strategy for the Treatment of Autosomal Dominant Polycystic Kidney Disease (ADPKD)” (J Med Chem, 2025).
Calls of active or inactive are those of the source. No cut-off for these calls is given here.

Assays:
[1] = Cmax in rat at 2 mg/kg, iv measured after 24 hrs by LC-MS/MS analysis; assay type: ADME, organism-based; conditions: in vivo
[2] = AUC (0 to infinity) in rat at 2 mg/kg, iv measured after 24 hrs by LC-MS/MS analysis; assay type: ADME, organism-based; conditions: in vivo
[3] = Clearance in rat at 2 mg/kg, iv measured after 24 hrs by LC-MS/MS analysis; assay type: ADME, organism-based; conditions: in vivo
[4] = Volume of distribution at steady state in rat at 2 mg/kg, iv measured after 24 hrs by LC-MS/MS analysis; assay type: ADME, organism-based; conditions: in vivo, read-out: Vdss
[5] = Half-life in rat at 10 mg/kg, po measured after 24 hrs by LC-MS/MS analysis; assay type: ADME, organism-based; conditions: in vivo
[6] = Tmax in rat at 10 mg/kg, po measured after 24 hrs by LC-MS/MS analysis; assay type: ADME, organism-based; conditions: in vivo
[7] = AUC (0 to infinity) in rat at 10 mg/kg, po measured after 24 hrs by LC-MS/MS analysis; assay type: ADME, organism-based; conditions: in vivo
[8] = Oral bioavailability in rat at 10 mg/kg measured after 24 hrs by LC-MS/MS analysis; assay type: ADME, organism-based; conditions: in vivo
[9] = target: T1, E3 ubiquitin-protein ligase RNF126/Serine/threonine-protein kinase TBK1 (Homo sapiens, UniProt Q9UHD2+Q9BV68); assay: Molecular glue activity at RNF126/TBK1 in human A549 cells assessed as induction of TBK1 degradation at 1 uM incubated for 16 hrs by Western blot analysis; assay type: cell-based
Target sequence in this assay (Q9BV68 2-311 partner limits assumed, one chain of several): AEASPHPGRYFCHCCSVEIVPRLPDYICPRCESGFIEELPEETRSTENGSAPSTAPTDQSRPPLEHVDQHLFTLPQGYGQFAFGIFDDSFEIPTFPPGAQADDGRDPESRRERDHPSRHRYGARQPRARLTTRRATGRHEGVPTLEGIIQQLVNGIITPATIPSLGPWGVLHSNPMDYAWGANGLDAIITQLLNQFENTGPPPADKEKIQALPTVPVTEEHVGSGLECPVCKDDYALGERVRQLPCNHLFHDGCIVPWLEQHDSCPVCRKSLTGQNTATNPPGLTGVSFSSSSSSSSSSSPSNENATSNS

[10] = target: T1, E3 ubiquitin-protein ligase RNF126/Serine/threonine-protein kinase TBK1; assay: Molecular glue activity at RNF126/TBK1 in human A549 cells assessed as induction of TBK1 degradation incubated for 16 hrs by Western blot analysis; assay type: cell-based
[11] = target: T1, E3 ubiquitin-protein ligase RNF126/Serine/threonine-protein kinase TBK1; assay: Molecular glue activity at RNF126/TBK1 in HEK293T cells assessed as induction of TBK1 degradation by measuring maximal efficacy at 10 to 1000 nM incubated for 16 hrs by Western blot analysis relative to control; assay type: cell-based; conditions: dose 10-1000 nM
Target sequence in this assay (Q9BV68 2-311 partner limits assumed, one chain of several): as above

[12] = target: T1, E3 ubiquitin-protein ligase RNF126/Serine/threonine-protein kinase TBK1; assay: Molecular glue activity at RNF126/TBK1 in HEK293T cells assessed as induction of TBK1 degradation at 1 uM by Western blot analysis; assay type: cell-based; conditions: time 2-24 hrs
Target sequence in this assay (Q9BV68 2-311 partner limits assumed, one chain of several): as above

[13] = target: T1, E3 ubiquitin-protein ligase RNF126/Serine/threonine-protein kinase TBK1; assay: Molecular glue activity at RNF126/TBK1 in human A549 cells assessed as induction of TBK1 degradation at 1 uM measured after 6 hrs by Western blot analysis; assay type: cell-based
Target sequence in this assay (Q9BV68 2-311 partner limits assumed, one chain of several): as above

[14] = target: T1, E3 ubiquitin-protein ligase RNF126/Serine/threonine-protein kinase TBK1; assay: Molecular glue activity at RNF126/TBK1 in HEK293T cells assessed as induction of TBK1 degradation at 1 uM measured after 6 hrs by Western blot analysis; assay type: cell-based
Target sequence in this assay (Q9BV68 2-311 partner limits assumed, one chain of several): as above

[15] = target: T1, E3 ubiquitin-protein ligase RNF126/Serine/threonine-protein kinase TBK1; assay: Molecular glue activity at RNF126/TBK1 in HEK293T cells assessed as induction of TBK1 degradation at 1 uM measured after 24 hrs by Western blot analysis; assay type: cell-based
Target sequence in this assay (Q9BV68 2-311 partner limits assumed, one chain of several): as above

[16] = target: T1, E3 ubiquitin-protein ligase RNF126/Serine/threonine-protein kinase TBK1; assay: Molecular glue activity at RNF126/TBK1 in HEK293T cells assessed as induction of TBK1 degradation at 1 uM pretreated with MLN4924 for 2 hrs followed by compound addition and measured after 16 hrs by Western blot analysis; assay type: cell-based
[17] = target: T2, Serine/threonine-protein kinase TBK1 (Homo sapiens, UniProt Q9UHD2); assay: Inhibition of TBK1-dependent SEAP reporter gene expression in LPS-stimulated human THP1-Blue ISG cells incubated for 24 hrs by QUANTI-Blue reagent based analysis; assay type: cell-based
T2 sequence (Q9UHD2 whole entry): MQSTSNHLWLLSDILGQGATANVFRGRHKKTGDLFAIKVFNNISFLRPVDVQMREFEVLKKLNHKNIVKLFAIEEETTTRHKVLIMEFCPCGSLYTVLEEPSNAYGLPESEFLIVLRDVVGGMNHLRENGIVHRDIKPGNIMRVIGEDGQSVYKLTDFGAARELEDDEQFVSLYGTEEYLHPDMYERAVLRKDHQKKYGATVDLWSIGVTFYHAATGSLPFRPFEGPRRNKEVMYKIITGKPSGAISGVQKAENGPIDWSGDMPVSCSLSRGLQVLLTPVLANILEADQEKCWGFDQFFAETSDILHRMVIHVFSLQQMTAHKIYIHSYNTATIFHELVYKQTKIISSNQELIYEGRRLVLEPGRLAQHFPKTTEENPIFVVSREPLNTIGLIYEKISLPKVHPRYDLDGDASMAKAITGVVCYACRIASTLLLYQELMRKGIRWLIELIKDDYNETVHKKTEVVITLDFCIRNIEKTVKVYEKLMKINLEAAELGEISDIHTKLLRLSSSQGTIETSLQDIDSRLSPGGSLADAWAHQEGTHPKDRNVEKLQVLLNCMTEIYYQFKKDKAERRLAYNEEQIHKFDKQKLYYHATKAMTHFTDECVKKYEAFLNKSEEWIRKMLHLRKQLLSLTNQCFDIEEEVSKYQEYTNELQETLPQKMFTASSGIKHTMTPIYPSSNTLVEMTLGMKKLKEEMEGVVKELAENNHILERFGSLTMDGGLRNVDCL

MDCK = assay: Inhibition of cystogenesis in forskolin-stimulated MDCK cells assessed as reduction in cyst growth at 100 nM by imaging analysis; assay type: functional, cell-based; conditions: Canis lupus familiaris, time 8.0 day
Kidney = assay: Ex vivo inhibition of renal cystogenesis in wild type C57BL/6 mouse kidney assessed as suppression of 8-Br-cAMP-induced cyst development at 100 nM treated for 6 days by imaging analysis; assay type: functional, tissue-based; conditions: time 6.0 day
Mus musculus [18] = assay: Inhibition of renal cystogenesis in PKD1 knockout ADPKD (Pkd1 flox/flox; Ksp-Cre) C57BL/6 mouse model assessed as reduction in renal cystic index at 5 mg/kg, SC administered from postnatal day 6 and measured on postnatal day 12 (reference value: 20.0 +/- 1.3 %); assay type: functional; parameters: scale not given: the % may be the effect or the level left; conditions: time 7 day
Mus musculus [19] = assay: In vivo molecular glue activity at RNF126/TBK1 in PKD1 knockout ADPKD (Pkd1 flox/flox; Ksp-Cre) C57BL/6 mouse model assessed as decrease in phosphorylated STING level in kidney at 5 mg/kg, SC administered from postnatal day 6 and measured on postnatal day 12 by Western blot analysis; assay type: functional, organism-based; conditions: time 7.0 day
Mus musculus [20] = assay: Anti-inflammatory activity in PKD1 knockout ADPKD (Pkd1 flox/flox; Ksp-Cre) C57BL/6 mouse model assessed as decrease in Ccl2 level in kidney at 5 mg/kg, SC administered from postnatal day 6 and measured on postnatal day 12 by RT-qPCR analysis; assay type: functional, organism-based; conditions: time 7.0 day
Mus musculus [21] = assay: Anti-inflammatory activity in PKD1 knockout ADPKD (Pkd1 flox/flox; Ksp-Cre) C57BL/6 mouse model assessed as decrease in IFN-beta level in kidney at 5 mg/kg, SC administered from postnatal day 6 and measured on postnatal day 12 by RT-qPCR analysis; assay type: functional, organism-based; conditions: time 7.0 day
Mus musculus [22] = assay: Anti-inflammatory activity in PKD1 knockout ADPKD (Pkd1 flox/flox; Ksp-Cre) C57BL/6 mouse model assessed as decrease in IL-1beta level in kidney at 5 mg/kg, SC administered from postnatal day 6 and measured on postnatal day 12 by RT-qPCR analysis; assay type: functional, organism-based; conditions: time 7.0 day
Mus musculus [23] = assay: Anti-inflammatory activity in PKD1 knockout ADPKD (Pkd1 flox/flox; Ksp-Cre) C57BL/6 mouse model assessed as decrease in TNF-alpha level in kidney at 5 mg/kg, SC administered from postnatal day 6 and measured on postnatal day 12 by RT-qPCR analysis; assay type: functional, organism-based; conditions: time 7.0 day

COc1ccc(C(=O)/C=C/C(=O)N2CCN(CC3CCN(Cc4cccc(Nc5ncc6ccn(CCCNC(=O)C7CCC7)c6n5)c4)CC3)CC2)cc1
Cmax [1]: 1790 nM | AUC(0-inf) [2]: 1.03 µM·h | clearance [3]: 44.9 mL/min/kg | Vd [4]: 17.3 L/kg | half-life [5]: 73.2 min | Tmax [6]: 21.6 min | AUC(0-inf) [7]: 0.14 µM·h | bioavailability [8]: 2.77% | Activity [9]: Active | Activity [10]: Dose-dependent-effect | DC50 [10]: 360 nM | Emax [11]: 91.9% | Activity [12]: Time-dependent-effect | Activity [13]: Active; Significant Reduction In Tbk1 Level Observed | Activity [14]: Active; Significant Reduction In Tbk1 Level Observed | Activity [15]: Active; Maximal Tbk1 Degradation Observed | Activity [16]: Active; Degradation In Independent Of Crl-Related Pathway | IC50 [17]: 77.4 nM | inhibition (MDCK): Time-dependent-effect; Effect Observed Starting On Day 6 | inhibition (Kidney): Active | Activity (Mus musculus [18]): 14% | Activity (Mus musculus [19]): Active | Activity (Mus musculus [20]): Active | Activity (Mus musculus [21]): Active | Activity (Mus musculus [22]): Active | Activity (Mus musculus [23]): Active
